Values of other authors, collected in patent publication US20110142757A1, “NOVEL COMPOUNDS AND THEIR USES IN DIAGNOSIS” (the University of Sydney, priority 2008, published 2011).

Tested on: activated microglia
Details: quinolinic acid-injected rat striatum

CCC(C)N(C)C(=O)c1cc2ccccc2c(-c2ccccc2Cl)n1 (stereo not shown) [PK11195]
Microglial activation and neuronal death: reduces microglial activation and neuronal death
